This passage reports IC50 results from PubChem BioAssay AID1417 (Emory University Molecular Libraries Screening Center, 2008).

Structures are written as SMILES. A value given as a limit tells only on which side of the number the result lay.

The target of the assay is Induced myeloid leukemia cell differentiation protein Mcl-1 (Homo sapiens) (UniProt Q07820). Kind of assay: Mcl-1 Noxa peptide disruption concentration-response – biochemical, TR-FRET, dose response (AID 1417). As to conditions: Mcl-1/Noxa peptide interaction, cell-free TR-FRET (terbium/rhodamine), 2 h; measured here: absolute IC50. (TR-FRET usually uses a lanthanide donor and a delayed reading to cut background.)
Induced myeloid leukemia cell differentiation protein Mcl-1 (Homo sapiens), sequence (Q07820 whole entry, looked up): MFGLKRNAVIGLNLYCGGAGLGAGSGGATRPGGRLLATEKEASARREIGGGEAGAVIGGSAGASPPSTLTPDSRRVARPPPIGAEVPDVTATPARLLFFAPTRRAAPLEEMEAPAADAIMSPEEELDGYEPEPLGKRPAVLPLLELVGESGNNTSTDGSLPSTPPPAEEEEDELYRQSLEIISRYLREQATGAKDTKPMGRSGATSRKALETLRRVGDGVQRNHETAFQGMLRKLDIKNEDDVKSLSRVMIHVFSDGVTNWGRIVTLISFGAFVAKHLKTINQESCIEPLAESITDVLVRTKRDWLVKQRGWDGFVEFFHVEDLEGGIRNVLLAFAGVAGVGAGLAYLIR
Consider `COc1ccc(NC(=O)c2ccccc2N(Cc2ccccc2)S(C)(=O)=O)cc1`, for which the IC50 was greater than 54 µM.
The figure for `Oc1c(Br)cc(C=Nc2ccc3nc(-c4ccccc4)[nH]c3c2)c(O)c1Br` is 0.594 µM.
Molecule `Oc1ccc(Br)cc1-c1cc(-c2ccc(Cl)cc2)n[nH]1` had an IC50 of 1.68 µM.
Consider `Cc1cc(-c2nc3c4c5c(sc4[nH]c(=O)n3n2)CCC5)c(C)o1`, for which the IC50 was less than 0.4 µM.
Then `O=C(Cc1ccc(S(=O)(=O)N2CCOCC2)s1)Nc1nc2c(s1)CCCC2`, with 5.18 µM; and `CC1=NN(C(N)=S)C(=O)C1N=Nc1ccc(O)cc1` (configuration not stated), with 11.2 µM.
`CCOC(=O)c1sc2nc3c(SCC(=O)O)cc(C(=O)c4cc(F)ccc4O)cn3c(=O)c2c1C`: the IC50 stood at 2.26 µM.
`O=C(O)COc1ccccc1C(Nc1cccnc1)c1cc(Cl)c2cccnc2c1O` (configuration not stated) showed an IC50 of less than 0.4 µM.
On to `COc1ccccc1C1NC=C([N+](=O)[O-])C=C1[N+](=O)[O-]` (configuration not stated), for which the IC50 was greater than 54 µM.
With `O=C1N=c2ccccc2=C1c1sc(Nc2ccc(O)cc2)nc1O`, the IC50 was determined as 1.2 µM.
`CCS(=O)(=O)C1=NN2C(=N)/C(=C\c3ccc(SCc4ccco4)o3)C(=O)N=C2S1`: the IC50 was found to be 1.46 µM. This IC50 and that of the molecule before are within 1.5-fold of each other.
As to `CCOc1ccc(-c2ccc(/C=C3/C(=N)N4C=CSC4=NC3=O)o2)c([N+](=O)[O-])c1`, the IC50 worked out at 1.58 µM.
In turn, `CC(C)N1CCc2c(sc(NC(=O)c3cc4cc([N+](=O)[O-])ccc4s3)c2C(N)=O)C1` showed an IC50 of 3.95 µM.
Turning to `COc1cc(/C=N/Nc2nnc3c(n2)[nH]c2ccccc23)ccc1O`, the IC50 is 5.83 µM.
Turning to `CCOc1ccc(/C=C/[N+](=O)[O-])c2ccccc12`, the IC50 was 1.7 µM.
As to `CC1=C(SCCC#N)S/C(=C2\SC(C)=C(SCCC#N)S2)S1`, the IC50 turned out to be 2.71 µM.
On to `N#C/C(=C/c1ccc(OCc2ccc(C(=O)O)cc2)c(Br)c1)c1cccc(F)c1`, for which the IC50 was less than 0.4 µM.
Regarding `O/N=C1/CCCSc2ccccc21`, the IC50 was greater than 54 µM.
Take `Cc1cc(C(F)F)n2nc(C(=O)Nc3sc4c(c3C(N)=O)CCC4)nc2n1`: the IC50 is 11.4 µM.
Take `O=c1/c(=C\c2cc([N+](=O)[O-])cc([N+](=O)[O-])c2O)sc2nc3ccccc3n12`: the IC50 was less than 0.4 µM.
`O=C1C=CC(=O)C(C2=C3C(=O)N(CCc4ccccc4)CC(=O)N3CCC2)=C1` came in with an IC50 greater than 54 µM.
Turning to `CCOC(=O)C1=C(O)c2ccccc2C(=O)/C1=C\c1ccc(CC)cc1`, the IC50 is less than 0.4 µM.
The figure for `Nc1ccc(O)c2c1C(=O)c1ccccc1C2=O` is 1.88 µM; for `Nc1ccc(-c2nc3cc([N+](=O)[O-])ccc3o2)cc1` it is 7.16 µM; for `COc1ccc(N=C2NC(=O)/C(=C\C=C\c3ccco3)S2)cc1` it is 1.48 µM.
`O=C(Nc1ccc(N2CCOCC2)cc1)Nc1ccc2nc(-c3ccco3)c(-c3ccco3)nc2c1` had an IC50 of less than 0.4 µM.
`O=C1CSC(=S)N1/N=C/c1ccc(O)c(O)c1O` gave an IC50 of less than 0.4 µM.
Then `CCc1c(C)[nH]c2ccc(OC)cc2c1=S`, with less than 0.4 µM; and `O=C(N/N=C/c1ccc(-c2ccc(S(=O)(=O)Nc3ncccn3)cc2)o1)c1cc2ccccc2cc1O`, with 1.43 µM.
Then `COc1cccc2c(=O)c3cccc(N)c3[nH]c12`, with greater than 54 µM.
`O=c1cc(/N=C/c2coc3c(ccc4ccccc43)c2=O)[nH]c(=S)[nH]1` had an IC50 of 4.08 µM.
`Cc1[nH]n(-c2ncc(-c3ccccc3)s2)c(=O)c1C(c1ccc(Br)cc1)C(C#N)C#N` (configuration not stated) returned an IC50 of 6.54 µM.
The molecule `O=C1NN(c2ccc(Cl)c(Cl)c2)C(=O)/C1=C/c1cccc(OC(=O)c2cccs2)c1` came in with an IC50 of 4.13 µM. This IC50 lies about 1.6-fold lower than the previous one.
In the case of `CCOC(=O)c1cc(-c2ccc(/C=C3/C(=O)NC(=O)C(C#N)=C3C)o2)ccc1Cl`, the IC50 is less than 0.4 µM.
`Nc1nc(=S)c2ncn(C3OC(CO)C(O)C3O)c2[nH]1` (configuration not stated) displayed an IC50 of 9.52 µM.
For the molecule `O=C1OCC2OC(O)C(O)C(O)C2OC(=O)c2cc(O)c(O)c(O)c2-c2c(O)c(O)c3oc(=O)c4c(c(O)c(O)c5oc(=O)c2c3c54)-c2c1cc(O)c(O)c2O` (configuration not stated), the IC50 is less than 0.4 µM.
Take `Cc1c(NS(=O)(=O)c2cc(NC(=O)CCN3CCCC(C)C3)ccc2Cl)c(=O)n(-c2ccccc2)n1C` (configuration not stated): the IC50 is greater than 54 µM.

The IC50 is the concentration at which inhibition is half-maximal. Lower therefore signals higher potency.
